Experimental data taken from PMC5876397, “An advanced human in vitro co-culture model for translocation studies across the placental barrier” (Scientific Reports, 2018).
Where two headings read alike, the source gives them in different places.

Assays:
HPEC-A2 monolayer [1] = tested on: HPEC-A2 monolayer
Protocol: (§2) Polycarbonate Transwell® inserts (pore size 3.0 µm, growth area 1.12 cm^2, apical volume 0.5 ml, basolateral volume 1.5 ml; Corning®, Sigma-Aldrich, Buchs, Switzerland) were pre-coated with 50 µg/ml human placental collagen IV (Sigma-Aldrich, Buchs, Switzerland) for 1 h at 37 °C/5% CO2 (200 µl on both sides). Then the membrane was washed twice with phosphate buffered saline (PBS, pH 7.4, Sigma-Aldrich, Steinheim, Germany). Translocation experiments were done either with BeWo or HPEC monocultures or with both cell lines co-cultivated on a membrane. For the BeWo monolayer 1.5 × 10^5 cells in 500 µl EM were added apically and 1.5 ml EM basolaterally. For the HPEC monolayer the cells were seeded on the basolateral side of the membrane (Fig. 5a–d). Therefore, the reversed insert was placed in a 6-well plate (TPP, Faust AG, Schaffhausen, Switzerland), which had been filled with 1 ml sterile PBS to ensure a humid surrounding. Small rubber spaces (1.5 mm thick) were placed in each corner of the plate in order to slightly lift the lid to prevent direct contact of the lid with the membrane. This enables the adhesion of the drop to the lid, thereby avoiding medium loss as well as cell aggregation in the center. 1 × 10^5 HPECs in 200 µl EM were added to the membrane and the lid was immediately placed on the plate. After 2 h of incubation (37 °C, 5% CO2), the insert was placed into a 12-well plate with fresh EM (0.5 ml apical and 1.5 ml basolateral). For the co-culture, the steps described above for the monocultures were done, starting with the HPEC layer. The inserts were cultivated for 3 d at 37 °C/5% CO2 in EM (medium change after 48 h) under static conditions.
(§3) Translocation studies were performed with co-cultured membranes as well as separate monolayers (BeWo on the apical or HPEC on the basolateral side of the insert) cultivated for 3 d as described above. […] At each time point (0, 0.25, 2, 4, 6, 8, 24 h) samples (50 µl) were taken from the basolateral chamber and renewed with fresh medium. […] Only differences were the use of EM with phenol red and sample volumes of 200 µl (basolateral) at each time point (0, 0.25, 1, 2, 6 h). Analysis of these samples was done by high performance liquid chromatography (HPLC). These studies were conducted in static and shaken (horizontal shaking at 50 rpm) conditions to determine the potential influence of simple shaking on transfer rates.
(§4) The mass transported (ΔQn) was calculated for each time point and corrected for the mass taken before:1 ΔQn=Cn∗Vw+∑j=1n−1Vs∗Cj with the concentration measured at time tn (Cn), the volume of the well (Vw, 1.5 ml) and the sample volume (Vs). The sum of the amount removed during previous sampling is added respectively (Σ). Results were then expressed as basolateral amount of the initial dose (ID) in %. […] The permeability factor was calculated with the following two equations:2 P=ΔQ/Δt/A∗C0 3 Pe=1/(1/Pc−1/Pm) where the permeability factor (P; cm s^−1) is first calculated as the quotient of the amount transported (ΔQ; mg) at a specific time point (Δt; sec) divided by the product of the membrane surface area (cm^2) and the initial concentration of the substance (C0; mg cm^−3). Pe describes the apparent permeability factor corrected for the influence of the membrane. Therefore, the permeability value across the membrane Pm was subtracted from the permeability across the cells (Pc; monolayer or co-culture).

HPEC-A2 monolayer [2] = experiment: Sodium fluorescein (Na-F) exclusion assay, HPEC monoculture; assay type: in vitro ADME, human; conditions: after 3 d of cultivation, 5 µM Na-F, 3 h incubation
Protocol: (§1) To determine barrier formation, exclusion of Na-F was determined daily for 4 d. 0.5 ml of 5 µM Na-F (Sigma-Aldrich, Buchs, Switzerland) was added to the apical chamber and 1.5 ml EM (without phenol red) to the basal chamber.

BeWo b30 monolayer [3] = tested on: BeWo b30 monolayer
Protocol: as §2, §3, §4

[4] = tested on: BeWo b30 / HPEC-A2 co-culture
Protocol: as §2, §3, §4

BeWo b30 monolayer [5] = experiment: Sodium fluorescein (Na-F) exclusion assay, BeWo monoculture; assay type: in vitro ADME, human; conditions: day 3 of cultivation, 5 µM Na-F, 3 h incubation
Protocol: as §1

[6] = tested on: BeWo b30 / HPEC-A2 co-culture; experiment: Sodium fluorescein (Na-F) exclusion assay, co-culture; assay type: in vitro ADME, human; conditions: day 3 of cultivation, 5 µM Na-F, 3 h incubation
Protocol: as §1

BeWo cells = conditions: cited from earlier work
[7] = not told, 2 h
Protocol: as §2
(§5) Translocation studies were performed with co-cultured membranes as well as separate monolayers (BeWo on the apical or HPEC on the basolateral side of the insert) cultivated for 3 d as described above. […] At each time point (0, 0.25, 2, 4, 6, 8, 24 h) samples (50 µl) were taken from the basolateral chamber and renewed with fresh medium. […]
(§6) The mass transported (ΔQn) was calculated for each time point and corrected for the mass taken before:1 ΔQn=Cn∗Vw+∑j=1n−1Vs∗Cj with the concentration measured at time tn (Cn), the volume of the well (Vw, 1.5 ml) and the sample volume (Vs). […] Results were then expressed as basolateral amount of the initial dose (ID) in %. […] The permeability factor was calculated with the following two equations:2 P=ΔQ/Δt/A∗C0 3 Pe=1/(1/Pc−1/Pm) where the permeability factor (P; cm s^−1) is first calculated as the quotient of the amount transported (ΔQ; mg) at a specific time point (Δt; sec) divided by the product of the membrane surface area (cm^2) and the initial concentration of the substance (C0; mg cm^−3). […]

in vitro [8] = conditions: human
Protocol: as §2, §3, §4

in vitro [9] = conditions: not told, Permeability factor P2h
Protocol: as §2, §5, §6

BeWo monolayer = conditions: cited from earlier work
[10] = Translocation study across BeWo monolayer on collagen-coated 3 µm polycarbonate Transwell insert; conditions: human; for Papp at 2 h, 100 µM: BeWo monolayer
Protocol: as §2, §3, §4

BeWo b30 monolayer [11] = experiment: as above; conditions: BeWo layer, after 6 h, static, 100 µM
Protocol: as §2, §3, §4

[12] = tested on: BeWo b30 / HPEC-A2 co-culture; experiment: Translocation study across BeWo/HPEC co-culture (placental barrier model); conditions: after 6 h, static, 100 µM
Protocol: as §2, §3, §4

[13] = as above; conditions: human
Protocol: as §2, §3, §4

[14] = Translocation across control (empty collagen-coated) insert membrane; conditions: not told, Permeability factor P2h
Protocol: as §2, §5, §6

[15] = Translocation study across HPEC monolayer on collagen-coated 3 µm polycarbonate Transwell insert; conditions: human
Protocol: as §2, §3, §4

HPEC-A2 monolayer [16] = experiment: as above; conditions: after 6 h, static, 100 µM
Protocol: as §2, §3, §4

[17] = Apparent permeability factor Pe, 2h, shaken (50 rpm), median ± mad
[18] = Permeability factor P2h, shaken, without subtraction of Pmembrane
[19] = Permeability factor P2h, static, without subtraction of Pmembrane
[20] = Apparent permeability factor Pe, 2h, static, median ± mad

Compound: O=C([O-])c1ccccc1-c1c2ccc(=O)cc-2oc2cc([O-])ccc12.[Na+].[Na+] [Na-F, sodium fluorescein]
- Transport, basolateral amount of the initial dose (ID) (HPEC-A2 monolayer [1]): 77.0%
- Na-F translocation, basolateral amount of ID (HPEC-A2 monolayer [2]): 14.0 % of ID
- Permeability factor P2h (BeWo b30 monolayer [3]): 2.5 ± 0.4 x 10-6 cm s-1
- Transport, basolateral amount of the initial dose (ID) (BeWo b30 monolayer [3]): 34.5%
- Apparent permeability factor Pe, 2h [4]: 1.1 ± 1.1 × 10^−6 cm s^−1
- Permeability factor P2h [4]: 1.0 ± 1.0 x 10-6 cm s-1
- Transport, basolateral amount of the initial dose (ID) [4]: 35.1%
- Na-F translocation, basolateral amount of ID (BeWo b30 monolayer [5]): 0.5 % of ID
- Na-F translocation, basolateral amount of ID [6]: 0.5 % of ID
- Viability of BeWo cells (BeWo cells; previous publications ref 47, 64): did not affect the viability

Compound: Cc1cc(=O)n(-c2ccccc2)n1C [antipyrine]
- Permeability factor P2h [7]: 35.3 ± 0.7
- Papp at 1 h, 100 µM (in vitro [8]; Permeability P1h): 36.2 ×10⁻⁶ cm/s
- Papp at 1 h, 100 µM (in vitro [8]; Permeability Pe, 1h): 79.3 ×10⁻⁶ cm/s
- Apparent permeability factor Pe, 2h (HPEC-A2 monolayer [1]; human, 2 h, 100 µM): 76.5 ± 7.0 × 10^−6 cm s^−1
- Permeability factor P2h (HPEC-A2 monolayer [1]; human, 2 h, 100 µM): 24.1 ± 1.0
- Transport, basolateral amount of the initial dose (ID) (HPEC-A2 monolayer [1]; human, 6 h, 100 µM): 71.4%
- Papp at 2 h (in vitro [9]): 50 ± 3.4 ×10⁻⁶ cm/s
- Permeability Pe,1h (BeWo monolayer): 58 ×10⁻⁶ cm/s
- Apparent permeability factor Pe, 2h (BeWo b30 monolayer [3]; human, 2 h, 100 µM): 106.4 ± 8.2 × 10^−6 cm s^−1
- Permeability factor P2h (BeWo b30 monolayer [3]; human, 2 h, 100 µM): 26.5 ± 1.1
- Transport, basolateral amount of the initial dose (ID) (BeWo b30 monolayer [3]; human, 6 h, 100 µM): 74.7%
- Transport, basolateral amount of the initial dose (ID) ([4]; human, 6 h, 100 µM): 80.9%
- Viability of BeWo cells (BeWo cells): did not affect the viability

Compound: COc1ccc2c(c1)c(CC(=O)O)c(C)n2C(=O)c1ccc(Cl)cc1 [indomethacin]
- Papp at 2 h, 100 µM [10, 17]: 37.2 ± 11.9 ×10⁻⁶ cm/s
- Papp at 2 h, 100 µM ([10]; Apparent permeability factor Pe, 2h, static, apical to basolateral, median ± mad): 39.5 ± 8 ×10⁻⁶ cm/s
- Papp at 1 h, 100 µM ([10]; Permeability P1h, this study, static, compared with BeWo monolayer literature values): 19.9 ×10⁻⁶ cm/s
- Papp at 2 h, 100 µM [10, 18]: 21.7 ± 0.3 ×10⁻⁶ cm/s
- Papp at 2 h, 100 µM [10, 19]: 19 ± 3.5 ×10⁻⁶ cm/s
- Transport, basolateral amount of the initial dose (ID) (BeWo b30 monolayer [11]): 45.9%
- Transport, basolateral amount of the initial dose (ID) [12]: 41.5%
- Papp at 2 h, 100 µM [13, 17]: 30.7 ± 1.2 ×10⁻⁶ cm/s
- Papp at 2 h, 100 µM [13, 20]: 26.7 ± 0.2 ×10⁻⁶ cm/s
- Papp at 2 h, 100 µM [13, 18]: 17.3 ± 0.8 ×10⁻⁶ cm/s
- Papp at 2 h, 100 µM [13, 19]: 15.3 ± 1.1 ×10⁻⁶ cm/s
- Permeability P1h (BeWo monolayer; BeWo monoculture transfer model, static conditions, Li et al. ref 47): 23.2 ×10⁻⁶ cm/s
- Papp at 2 h ([14]; shaken): 39.6 ± 6.5 ×10⁻⁶ cm/s
- Papp at 2 h ([14]; static, median ± mad): 36.4 ± 1.1 ×10⁻⁶ cm/s
- Papp at 2 h, 100 µM [15, 17]: 22.7 ± 0.4 ×10⁻⁶ cm/s
- Papp at 2 h, 100 µM [15, 20]: 19 ± 0.1 ×10⁻⁶ cm/s
- Papp at 2 h, 100 µM [15, 18]: 14.6 ± 1.2 ×10⁻⁶ cm/s
- Papp at 2 h, 100 µM [15, 19]: 12.6 ± 0.6 ×10⁻⁶ cm/s
- Transport, basolateral amount of the initial dose (ID) (HPEC-A2 monolayer [16]): 42.9%
